Measured values published in ChEMBL document CHEMBL5537175, “Unraveling the Puzzle of Therapeutic Peptides: A Promising Frontier in Huntington's Disease Treatment” (J Med Chem, 2024).

Tests used:
RNA = assay: Binding affinity to CAG repeat RNA (unknown origin) assessed as dissociation constant; format: nucleic-acid assay
Caspase-6 = target: T1, Caspase-6 (Homo sapiens, UniProt P55212); assay: Inhibition of Caspase-6 activity (unknown origin) by FRET assay
T1 sequence (P55212 whole entry): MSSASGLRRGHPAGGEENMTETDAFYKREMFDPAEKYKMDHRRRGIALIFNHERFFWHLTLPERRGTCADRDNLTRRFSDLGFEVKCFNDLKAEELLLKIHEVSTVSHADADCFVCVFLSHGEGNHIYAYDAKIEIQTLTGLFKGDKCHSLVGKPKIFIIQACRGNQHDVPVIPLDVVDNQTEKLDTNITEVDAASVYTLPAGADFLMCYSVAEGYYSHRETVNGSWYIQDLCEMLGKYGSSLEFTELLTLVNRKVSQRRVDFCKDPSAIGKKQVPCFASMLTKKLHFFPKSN

Huntingtin [1] = target: T2, Huntingtin (Homo sapiens, UniProt P42858); assay: Inhibition of HTT (unknown origin) aggregation at 5 uM relative to control
COS-7 = assay: Cytotoxicity against african green monkey COS-7 cells assessed as reduction in cell growth; format: toxicity, cell-based; design: scale not given: the % may be the effect or the level left; conditions: chlorocebus aethiops
Huntingtin [2] = target: T2, Huntingtin; assay: Binding affinity to HTT (unknown origin) assessed as dissociation constant by surface plasmon resonance assay
Huntingtin [3] = target: T2, Huntingtin; assay: Inhibition of HTT (unknown origin) by ELISA method
[4] = Inhibition of YFP aggregation in african green monkey COS-7 cells at 70 nM relative to control; format: functional; conditions: Chlorocebus aethiops

T2 sequence (P42858 whole entry): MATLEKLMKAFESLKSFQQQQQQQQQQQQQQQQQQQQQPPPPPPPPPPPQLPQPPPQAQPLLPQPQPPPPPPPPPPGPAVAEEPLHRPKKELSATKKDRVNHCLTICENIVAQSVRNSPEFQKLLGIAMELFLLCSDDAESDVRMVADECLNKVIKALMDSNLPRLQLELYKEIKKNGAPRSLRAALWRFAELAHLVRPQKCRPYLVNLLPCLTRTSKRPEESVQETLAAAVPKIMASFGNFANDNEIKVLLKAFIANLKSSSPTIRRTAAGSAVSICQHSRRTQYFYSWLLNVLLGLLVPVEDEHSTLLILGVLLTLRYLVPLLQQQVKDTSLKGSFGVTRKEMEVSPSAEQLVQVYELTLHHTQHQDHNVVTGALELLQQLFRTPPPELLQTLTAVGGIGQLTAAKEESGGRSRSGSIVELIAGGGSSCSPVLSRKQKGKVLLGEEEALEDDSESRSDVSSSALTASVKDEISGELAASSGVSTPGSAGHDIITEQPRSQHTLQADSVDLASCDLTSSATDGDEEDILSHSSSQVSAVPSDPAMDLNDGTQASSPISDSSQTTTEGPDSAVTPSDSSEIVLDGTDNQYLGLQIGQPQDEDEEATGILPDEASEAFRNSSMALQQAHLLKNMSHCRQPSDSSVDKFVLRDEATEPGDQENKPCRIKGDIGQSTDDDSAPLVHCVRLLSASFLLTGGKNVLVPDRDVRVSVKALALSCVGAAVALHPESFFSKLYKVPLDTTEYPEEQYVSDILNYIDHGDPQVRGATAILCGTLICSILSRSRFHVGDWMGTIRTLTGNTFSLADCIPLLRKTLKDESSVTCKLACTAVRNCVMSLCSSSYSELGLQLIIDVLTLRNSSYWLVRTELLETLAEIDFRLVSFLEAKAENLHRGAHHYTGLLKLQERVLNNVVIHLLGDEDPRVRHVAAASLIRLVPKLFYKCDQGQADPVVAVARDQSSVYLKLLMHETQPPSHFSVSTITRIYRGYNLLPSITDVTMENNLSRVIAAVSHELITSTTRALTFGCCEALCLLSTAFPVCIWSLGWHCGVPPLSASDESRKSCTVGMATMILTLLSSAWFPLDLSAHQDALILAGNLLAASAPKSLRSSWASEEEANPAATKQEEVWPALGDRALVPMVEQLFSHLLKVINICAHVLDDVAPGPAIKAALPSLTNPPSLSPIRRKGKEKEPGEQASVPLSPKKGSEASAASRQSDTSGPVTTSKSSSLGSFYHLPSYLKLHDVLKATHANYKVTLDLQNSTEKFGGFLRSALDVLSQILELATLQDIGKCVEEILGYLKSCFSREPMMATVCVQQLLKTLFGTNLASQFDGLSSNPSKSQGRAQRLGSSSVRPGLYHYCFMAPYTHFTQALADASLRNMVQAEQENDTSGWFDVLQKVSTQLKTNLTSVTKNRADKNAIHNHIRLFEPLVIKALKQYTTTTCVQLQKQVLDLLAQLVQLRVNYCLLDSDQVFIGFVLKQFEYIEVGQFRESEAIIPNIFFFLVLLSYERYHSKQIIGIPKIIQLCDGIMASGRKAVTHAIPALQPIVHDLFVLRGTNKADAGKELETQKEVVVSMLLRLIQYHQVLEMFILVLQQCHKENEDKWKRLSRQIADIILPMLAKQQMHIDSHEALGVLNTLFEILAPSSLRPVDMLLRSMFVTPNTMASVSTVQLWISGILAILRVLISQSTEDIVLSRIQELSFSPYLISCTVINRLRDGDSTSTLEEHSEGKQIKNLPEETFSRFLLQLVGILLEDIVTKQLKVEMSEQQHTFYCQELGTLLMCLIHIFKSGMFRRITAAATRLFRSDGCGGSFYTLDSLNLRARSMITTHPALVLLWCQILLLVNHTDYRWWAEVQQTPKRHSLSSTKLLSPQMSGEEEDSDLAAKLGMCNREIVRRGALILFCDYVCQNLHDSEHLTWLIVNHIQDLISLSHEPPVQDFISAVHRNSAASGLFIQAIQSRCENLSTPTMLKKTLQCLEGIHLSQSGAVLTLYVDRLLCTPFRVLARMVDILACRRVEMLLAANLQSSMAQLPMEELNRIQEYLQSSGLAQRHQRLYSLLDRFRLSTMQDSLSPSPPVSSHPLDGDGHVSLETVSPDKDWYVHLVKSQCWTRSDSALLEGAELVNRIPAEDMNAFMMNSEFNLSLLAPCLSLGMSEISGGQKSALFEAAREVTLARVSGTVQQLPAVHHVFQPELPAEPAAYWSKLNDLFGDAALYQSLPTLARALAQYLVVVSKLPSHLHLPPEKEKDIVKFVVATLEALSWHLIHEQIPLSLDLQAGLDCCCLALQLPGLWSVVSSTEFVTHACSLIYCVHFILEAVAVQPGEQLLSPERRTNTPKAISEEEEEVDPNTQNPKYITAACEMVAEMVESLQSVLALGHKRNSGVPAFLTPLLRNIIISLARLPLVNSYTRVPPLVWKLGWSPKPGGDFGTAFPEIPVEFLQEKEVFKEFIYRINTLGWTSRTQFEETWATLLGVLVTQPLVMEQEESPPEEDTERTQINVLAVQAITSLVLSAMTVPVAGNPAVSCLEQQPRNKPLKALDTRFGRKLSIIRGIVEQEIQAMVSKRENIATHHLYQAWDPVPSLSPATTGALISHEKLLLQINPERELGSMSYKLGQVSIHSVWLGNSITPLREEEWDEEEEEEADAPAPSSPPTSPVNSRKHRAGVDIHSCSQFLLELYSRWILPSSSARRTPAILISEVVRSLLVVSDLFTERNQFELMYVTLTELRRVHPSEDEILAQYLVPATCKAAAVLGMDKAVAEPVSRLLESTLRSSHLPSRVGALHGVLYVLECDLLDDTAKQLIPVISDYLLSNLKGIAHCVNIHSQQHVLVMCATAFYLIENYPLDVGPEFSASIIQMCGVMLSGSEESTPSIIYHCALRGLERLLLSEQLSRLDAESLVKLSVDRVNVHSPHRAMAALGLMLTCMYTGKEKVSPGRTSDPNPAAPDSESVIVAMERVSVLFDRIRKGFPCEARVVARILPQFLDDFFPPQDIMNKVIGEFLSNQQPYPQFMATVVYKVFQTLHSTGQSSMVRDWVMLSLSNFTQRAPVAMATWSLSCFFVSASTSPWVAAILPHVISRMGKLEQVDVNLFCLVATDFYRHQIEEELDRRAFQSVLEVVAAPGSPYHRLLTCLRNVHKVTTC

## Ac-DGKSKGIAYIEFK-NH2
RNA
  Kd: 0.33 nM

## H-AEIRLVSKDGKSKGIAYIEFK-OH
RNA
  Kd: 660 nM

## H-DGKSKGIAYIEFK-OH
RNA
  Kd: 8.37 nM

## H-GRKKRRQRRRPPQSSEIVLDGTDN-OH
Caspase-6
  IC50: 12.1 nM

## H-MATLEKLMKAFESLKSF-OH
Huntingtin [1]
  inhibition: 20%

## H-RQIKIWFQNRRMKWKKSNWKWWPGIFD-OH
COS-7
  Activity: 30.2%

## H-SNWKWWPGIFD-OH
Huntingtin [2]
  Kd: 5700 nM
Huntingtin [3]
  IC50: 5000 nM

## H-WKWWPGIFDYGRKKRRQRRR-OH
[4]
  inhibition at 0.07 µM: 81.2%
